Measured values from ChEMBL document CHEMBL1201862, “PubChem BioAssay data set” (2004).
Calls of active or inactive are those of the source.

Tests used:
[1] = HEp-2 cell cytotoxicity, dose response, cytotoxicity control for RSV inhibitor project, HTS (AID 2410); type: functional; conditions: human respiratory syncytial virus
[2] = Luminescence Cell-Based Dose Confirmation HTS to Identify Inhibitors of Platelet Dense Granule Release. [Related pubchem assays: 1663 (Primary HTS), 1678 (Summary of Project)]; type: functional
[3] = target: Luciferin 4-monooxygenase (Photinus pyralis, UniProt P08659); test: firefly luciferase enzyme inhibitors, dose response, biochemical, luminescence (AID 1891)
Chain of Luciferin 4-monooxygenase (P08659 whole entry): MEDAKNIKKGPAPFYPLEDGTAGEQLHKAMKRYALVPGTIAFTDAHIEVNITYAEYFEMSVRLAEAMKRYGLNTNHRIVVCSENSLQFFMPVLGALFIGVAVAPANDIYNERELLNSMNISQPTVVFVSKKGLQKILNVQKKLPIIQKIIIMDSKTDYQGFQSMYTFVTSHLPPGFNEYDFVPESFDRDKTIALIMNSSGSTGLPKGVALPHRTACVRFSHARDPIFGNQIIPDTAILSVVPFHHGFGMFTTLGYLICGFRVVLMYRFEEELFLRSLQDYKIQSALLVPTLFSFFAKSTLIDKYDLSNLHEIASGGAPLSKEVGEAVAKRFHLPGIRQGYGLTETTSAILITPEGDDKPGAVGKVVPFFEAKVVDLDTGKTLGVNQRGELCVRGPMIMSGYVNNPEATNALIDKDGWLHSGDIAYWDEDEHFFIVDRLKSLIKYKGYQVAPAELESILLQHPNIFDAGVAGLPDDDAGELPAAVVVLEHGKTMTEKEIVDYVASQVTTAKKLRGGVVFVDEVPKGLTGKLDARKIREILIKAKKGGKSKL

Cytochrome P450 2C9 = Cytochrome P450 2C9 (Homo sapiens, UniProt P11712)
Chain of Cytochrome P450 2C9 (P11712 whole entry): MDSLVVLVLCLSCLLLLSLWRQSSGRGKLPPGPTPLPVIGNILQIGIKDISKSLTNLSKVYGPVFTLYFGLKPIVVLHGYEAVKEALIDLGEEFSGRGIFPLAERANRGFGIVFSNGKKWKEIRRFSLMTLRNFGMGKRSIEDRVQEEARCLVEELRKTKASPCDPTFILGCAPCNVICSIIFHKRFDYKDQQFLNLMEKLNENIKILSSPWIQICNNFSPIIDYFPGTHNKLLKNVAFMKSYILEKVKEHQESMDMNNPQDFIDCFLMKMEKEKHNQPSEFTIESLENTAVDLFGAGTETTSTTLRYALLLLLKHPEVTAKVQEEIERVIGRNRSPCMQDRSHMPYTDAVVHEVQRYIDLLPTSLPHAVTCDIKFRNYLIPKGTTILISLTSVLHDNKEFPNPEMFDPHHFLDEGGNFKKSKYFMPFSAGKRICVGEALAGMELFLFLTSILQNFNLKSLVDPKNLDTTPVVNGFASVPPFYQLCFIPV

Cytochrome P450 3A4 = Cytochrome P450 3A4 (Homo sapiens, UniProt P08684);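 further: CYP3A4 tested as one member of a cytochrome P450 panel screen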
Chain of Cytochrome P450 3A4 (P08684 whole entry): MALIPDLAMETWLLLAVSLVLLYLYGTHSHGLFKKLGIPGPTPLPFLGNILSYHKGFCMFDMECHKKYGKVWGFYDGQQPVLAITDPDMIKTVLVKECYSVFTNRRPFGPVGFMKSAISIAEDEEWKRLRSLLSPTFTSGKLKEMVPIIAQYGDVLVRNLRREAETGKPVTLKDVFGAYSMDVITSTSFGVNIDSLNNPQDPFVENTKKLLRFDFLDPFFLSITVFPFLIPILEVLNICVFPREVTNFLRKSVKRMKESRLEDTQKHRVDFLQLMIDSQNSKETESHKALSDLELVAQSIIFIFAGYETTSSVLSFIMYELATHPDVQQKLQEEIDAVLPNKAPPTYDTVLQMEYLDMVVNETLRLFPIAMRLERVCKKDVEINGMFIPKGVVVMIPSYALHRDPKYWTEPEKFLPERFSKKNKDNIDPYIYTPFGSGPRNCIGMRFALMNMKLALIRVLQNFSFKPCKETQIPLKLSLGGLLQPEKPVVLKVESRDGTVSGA

[4] = Luminescence Cell-Based Dose Retest to Confirm Inhibitors of Cancer Stem Cells. [Related pubchem assays (depositor defined):AID2717, AID2721]; type: functional; conditions: Homo sapiens
[5] = system: Streptococcus sp. 'group A'; test: growth inhibition of control SK(-) GAS strain, dose response, counter-screen for streptokinase expression inhibitor project, luminescence, kanamycin, BacTiterGlo, confirmation (AID 1900); type: functional, organism-based
Streptokinase A = target: T1, Streptokinase A (Streptococcus pyogenes serotype M1, UniProt P10520); test: S. pyogenes streptokinase expression inhibitors, potency, dose response, plasminogen activation absorbance, OD405 (AID 1914); type: functional, Streptococcus pyogenes M1 GAS;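 further: secreted streptokinase activity via plasminogen activation per viability signal from cell pellet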
T1 sequence (P10520 whole entry): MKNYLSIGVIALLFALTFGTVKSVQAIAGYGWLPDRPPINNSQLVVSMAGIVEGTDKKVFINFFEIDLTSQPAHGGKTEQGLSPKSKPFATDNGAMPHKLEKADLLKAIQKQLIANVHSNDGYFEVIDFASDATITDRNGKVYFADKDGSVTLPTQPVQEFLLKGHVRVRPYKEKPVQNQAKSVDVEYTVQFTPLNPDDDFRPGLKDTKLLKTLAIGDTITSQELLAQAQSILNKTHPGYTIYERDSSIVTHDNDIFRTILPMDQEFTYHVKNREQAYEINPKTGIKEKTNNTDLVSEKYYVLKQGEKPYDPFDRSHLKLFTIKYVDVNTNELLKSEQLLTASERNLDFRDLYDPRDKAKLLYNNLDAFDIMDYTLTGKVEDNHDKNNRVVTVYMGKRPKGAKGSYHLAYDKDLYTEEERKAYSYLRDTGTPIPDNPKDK

Streptococcus = test: Group A Streptococcus viability loss, dose response, counter-screen for streptokinase expression inhibitor project, luminescence, BacTiterGlo (AID 1915); type: functional, organism-based;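 further: potency for reduction of bacterial viability or growth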
[6] = cytotoxicity toward NIH3T3 fibroblasts, dose response, counter-screen, cell-based, ATP luminescence, mouse fibroblasts (AID 2010); type: functional;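 further: cells exposed to compound for about 90 hours before reading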
[7] = inhibitors of intracellular T. cruzi replication, confirmation, NIH3T3 host cells, beta-gal luminescence (AID 2044); type: functional, cell-based;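 further: intracellular parasites grown in NIH/3T3 mouse fibroblasts as host cells; luminescent beta-galactosidase reporter signal from transgenic T. cruzi replicating inside host cells; inhibitors lower the luminescence signal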

O=[N+]([O-])c1ccc(S(=O)(=O)Nc2cccc(-c3ccc(N4CCCC4)nn3)c2)cc1
CC50 [1]: 24.5 µM (active)

O=C(c1cc2ccccc2o1)N(Cc1nnc(-c2ccccc2Cl)o1)C1CC1
CC50 [1]: 25.9 µM (active)

CCOC(=O)C1CCN(C(=O)c2oc3ccc(S(=O)(=O)N4CCCCCC4)cc3c2C)CC1
CC50 [1]: 17.7 µM (active)

O=C(COc1cccc(OC(F)F)c1)Nc1ccc(SC(F)F)cc1
EC50 [2]: > 112 µM (not active)
EC50 [3]: > 112 µM (not active)

COc1ccc(C(=O)NCCOc2cccc(OC)c2)cc1
EC50 [2]: > 112 µM (not active)
EC50 [3]: > 112 µM (not active)

COC(=O)c1[nH]c2cc(OC)ccc2c1NC(=O)CN1CCOCC1
EC50 [2]: > 112 µM (not active)
EC50 [3]: > 112 µM (not active)

O=c1cc(O)cc(/C=C\c2ccc(O)c(O)c2)o1
AC50 (Cytochrome P450 2C9): 25.1 µM (inconclusive)
AC50 (Cytochrome P450 3A4): 3.16 µM (inconclusive)

COc1cc(C)ccc1OCCCOc1ccccc1Cl
AC50 (Cytochrome P450 2C9): 12.6 µM (inconclusive)
AC50 (Cytochrome P450 3A4): 17.8 µM (inconclusive)

Clc1ccccc1Cn1c(/C=C/c2ccco2)nc2ccccc21
AC50 [4]: 2.86 µM (active)

CCC(C)(C)c1ccc(Oc2cccc(C(=O)O)c2)cc1
AC50 (Cytochrome P450 2C9): 5.01 µM (inconclusive)

COc1cc2c(cc1OC)C(C(=O)Nc1ccc3c(c1)OCCO3)C(c1cccnc1)N(C)C2=O (centres undefined)
AC50 (Cytochrome P450 2C9): 11.2 µM (inconclusive)

Cn1cc(S(=O)(=O)N2CCCC2)cc1C(=O)NCCc1ccccc1
EC50 [2]: > 112 µM (not active)
EC50 [3]: > 112 µM (not active)

O=C(Nc1ccccc1N1CCCC1)C1CCN(S(=O)(=O)c2ccccc2C(F)(F)F)CC1
CC50 [1]: > 50 µM (active)

CCOC(=O)Cn1c(=O)oc2cc(S(=O)(=O)NCCc3ccc(OCC)c(OCC)c3)ccc21
AC50 (Cytochrome P450 2C9): 0.00562 µM (inconclusive)

COCCn1c(=O)c(C)nc2cnc(Nc3cccc(OC)c3)nc21
AC50 (Cytochrome P450 2C9): 39.8 µM (inconclusive)

Brc1cccc(OCCN2CCc3ccccc3C2)c1
AC50 [4]: 24.9 µM (active)

CN1CCN(C(=O)CCN2C(=O)/C(=C/c3cccc(Br)c3)SC2=S)CC1
CC50 [1]: 18.8 µM (active)

CCOC(=O)C(=O)NNc1ccc(Cl)cc1
AC50 [4]: 0.79 µM (active)

COc1ccc(C(=O)C2CCCN(Cc3cc(C)c(O)c(C)c3)C2)c(OC)c1 (centres undefined)
AC50 [4]: 0.502 µM (active)

CC1=C(C(=O)OC2CCCCC2)C(c2ccc(C)o2)C2=C(O)CC(C)(C)CC2=N1 (centres undefined)
AC50 [4]: 1.38 µM (active)

COc1ccc(C(=O)OCCOc2cccc(Cl)c2)cc1S(=O)(=O)N1CCOCC1
EC50 [2]: > 112 µM (not active)
EC50 [3]: > 112 µM (not active)

CCc1ccc(C(=O)Nc2cccc(-c3nn[nH]n3)c2)s1
EC50 [2]: > 112 µM (not active)
EC50 [3]: 3.49 µM (active)

CCCc1cc(C(=O)N2CCCC(N3CCN(c4ccccc4F)CC3)C2)n(C)n1 (centres undefined)
EC50 [2]: 21.6 µM (active)
EC50 [3]: > 112 µM (not active)

Cc1noc(C)c1CSc1nc2ccccc2nc1NS(=O)(=O)c1ccc(Cl)cc1
EC50 [5]: 6.49 µM (active)
AC50 [4]: 3.64 µM (active)
EC50 (Streptokinase A): 5.51 µM (active)
EC50 (Streptococcus): 13.7 µM (active)

COc1ccc(NS(=O)(=O)c2cc(NC(=O)c3ccc(O)nc3)ccc2N2CCCC2)cc1
AC50 [4]: 0.952 µM (active)

CCC/C(=C1/c2ccccc2C(=O)N1c1ccccc1)c1ccc2c(c1)OCCO2
AC50 [4]: 3.85 µM (active)

COC(=O)C(NS(=O)(=O)c1ccc(NC(C)=O)cc1)C(C)C (centres undefined)
AC50 (Cytochrome P450 2C9): 1.58 µM (inconclusive)

CCc1ccc(-c2cc(C(=O)N/N=C/c3c[nH]c4ccccc34)[nH]n2)cc1
EC50 [5]: 7.37 µM (active)
AC50 [4]: 2.97 µM (active)
EC50 (Streptokinase A): > 150 µM (not active)
EC50 (Streptococcus): 6.73 µM (active)

O=C(N/N=C/c1ccc[nH]1)c1sc2ccccc2c1Cl
AC50 [4]: 1.94 µM (active)
EC50 [6]: > 30 µM (not active)
EC50 [7]: 2.3 µM (active)

C/C(=N\NC(=O)C1CC1)c1ccc(C(C)(C)C)cc1
CC50 [1]: 34.3 µM (active)

COc1ccc(/C=N\NC(=O)c2ccc(F)cc2)cc1COc1ccccc1C(N)=O
EC50 [2]: > 112 µM (not active)
EC50 [3]: > 112 µM (not active)
